Experimental data as given in the CATMoS acute toxicity set (Mansouri et al. 2021).

Assay: rat acute oral toxicity
Conditions: in vivo

| Compound | LD50 |
| --- | --- |
| CCO[Si](CCCSC#N)(OCC)OCC | 986 mg/kg |
| COCCOCCOCCOC | 5390 mg/kg |
| C=C(C)[C@@H]1CC=C(C)C(=O)C1 | 4900 mg/kg |
| NC=O | 5580 mg/kg |
| CC(C)NC(C)C | 310 mg/kg |
| CC(C)(C)c1ccc(C(O)CCCN2CCC(C(O)(c3ccccc3)c3ccccc3)CC2)cc1 (stereo not drawn) | 438 mg/kg |
| CC(=O)c1ccccc1 | 858 mg/kg |
| Nc1ccccc1C(F)(F)F | 1870 mg/kg |
| CC(C)CC(=O)CC(C)C | 5260 mg/kg |
| O=C(OCC1CCC2OC2C1)C1CCC2OC2C1 (stereo not drawn) | 4490 mg/kg |
| C=C(C)C(=O)OCc1ccccc1 | 3980 mg/kg |
| COc1ccc2c(c1)c(CC(=O)O)c(C)n2C(=O)c1ccc(Cl)cc1 | 2.42 mg/kg |
| OCC1CO1 (stereo not drawn) | 420 mg/kg |
| CCCCOCCOCCO | 5080 mg/kg |
| ClC1=C(Cl)C2(Cl)C3C4CC(C5OC45)C3C1(Cl)C2(Cl)Cl (stereo not drawn) | 3 mg/kg |
| COc1ccc(O)c(C(C)(C)C)c1 | 2910 mg/kg |
| CCOP(=O)(N=C1SCC(C)S1)OCC (stereo not drawn) | 8.9 mg/kg |
| C=CC(C)(CCC=C(C)C)OC(C)=O (stereo not drawn) | 13900 mg/kg |
| O=C1C2CC=CCC2C(=O)N1SC(Cl)(Cl)Cl (stereo not drawn) | 9000 mg/kg |
| CCCS | 1730 mg/kg |
| N#CCCC(Br)(C#N)CBr (stereo not drawn) | 515 mg/kg |

| Compound | LD50 |
| --- | --- |
| NCC1CCCC(CN)C1 (stereo not drawn) | 880 mg/kg |
| CCC(N)CO (stereo not drawn) | 800 mg/kg |
| N=C(NCCCCCCNC(=N)NC(=N)Nc1ccc(Cl)cc1)NC(=N)Nc1ccc(Cl)cc1 | 1180 mg/kg |
| Clc1cc(Cl)c(Cl)nc1Cl | 1000 mg/kg |
| Oc1ccc(Cl)cc1Cc1cc(Cl)ccc1O | 1510 mg/kg |
| CCCCCCCCC=CCCCCCCCC1=NCCN1CCO | 1000 mg/kg |
| CCCCOCCOC(=O)COc1ccc(Cl)cc1Cl | 831 mg/kg |
| Nc1ccccc1[N+](=O)[O-] | 1600 mg/kg |
| CCOP(=S)(OCC)Oc1nc(Cl)c(Cl)cc1Cl | 108 mg/kg |
| O=C(C(Cl)(Cl)Cl)C(Cl)(Cl)Cl | 240 mg/kg |
| O=C=NC1CCC(CC2CCC(N=C=O)CC2)CC1 (stereo not drawn) | 1060 mg/kg |
| Cc1ccccc1S(N)(=O)=O | 2400 mg/kg |
| C=COCCCl | 210 mg/kg |
| C#CCOS(=O)OC1CCCCC1Oc1ccc(C(C)(C)C)cc1 (stereo not drawn) | 2200 mg/kg |
| Cc1ccc(/N=C/N(C)/C=N/c2ccc(C)cc2C)c(C)c1 | 400 mg/kg |
| CCC(C(c1ccc(Cl)cc1)c1ccc(Cl)cc1)[N+](=O)[O-] (stereo not drawn) | 300 mg/kg |
| CC(C)CC(C)O (stereo not drawn) | 2590 mg/kg |
| O=[N+]([O-])C(Br)(CO)CO | 180 mg/kg |
| ClC1=C(Cl)C(Cl)(C2(Cl)C(Cl)=C(Cl)C(Cl)=C2Cl)C(Cl)=C1Cl | 1200 mg/kg |
| CC(=O)OO | 39.9 mg/kg |
| C[C@@H](O)C(=O)O | 3540 mg/kg |

| Compound | LD50 |
| --- | --- |
| ClC(Cl)Br | 916 mg/kg |
| O=C1C=CC(=O)N1c1ccccc1 | 128 mg/kg |
| CN(C)C(=O)Nc1ccc(Oc2ccc(Cl)cc2)cc1 | 3000 mg/kg |
| CC1(C)OC(c2ccco2)CN1C(=O)C(Cl)Cl (stereo not drawn) | 521 mg/kg |
| CCOP(=S)(OCC)SCCSCC | 1.9 mg/kg |
| Cc1ccc(C)c(OCCCC(C)(C)C(=O)O)c1 | 479 mg/kg |
| CC(=O)OC1CC(C)OC(C)O1 (stereo not drawn) | 1930 mg/kg |
| O=C1CCCN1 | 328 mg/kg |
| CC1(C)C(C=C(Cl)Cl)C1C(=O)OCc1cccc(Oc2ccccc2)c1 (stereo not drawn) | 406 mg/kg |
| CCCC(=O)O | 1630 mg/kg |
| CCC(=O)O | 2600 mg/kg |
| ClC(Cl)(Cl)C(Cl)(Cl)Cl | 4460 mg/kg |
| CCc1cccc(C)c1N(C(=O)CCl)C(C)COC (stereo not drawn) | 2200 mg/kg |
| Cc1ccc(C)c(C)c1 | 3280 mg/kg |
| CC(COCC(C)OC(=O)c1ccccc1)OC(=O)c1ccccc1 (stereo not drawn) | 3300 mg/kg |
| CC(=O)C(C)C | 148 mg/kg |
| CCOc1ccc2c(c1)C(C)=CC(C)(C)N2 | 800 mg/kg |
| CCCC(C)c1cccc(OC(=O)NC)c1 (stereo not drawn) | 50 mg/kg |
| ClCc1ccccc1 | 440 mg/kg |
| CCCCCCCCCc1ccc(OP(Oc2ccc(CCCCCCCCC)cc2)Oc2ccc(CCCCCCCCC)cc2)cc1 | 10000 mg/kg |
| O=[N+]([O-])c1ccc(O)cc1 | 170 mg/kg |

| Compound | LD50 |
| --- | --- |
| CC(Cc1ccc(C(C)(C)C)cc1)CN1CCCCC1 (stereo not drawn) | 1450 mg/kg |
| CCN(CC)c1nc(C)cc(OP(=S)(OC)OC)n1 | 1250 mg/kg |
| CCNCC | 540 mg/kg |
| O=C1CCN(c2ccccc2)N1 | 200 mg/kg |
| CN(C)c1ccc(N)cc1 | 50 mg/kg |
| Oc1ccccc1Cl | 40 mg/kg |
| CC1=C(C(=O)Nc2ccccc2)S(=O)(=O)CCO1 | 1630 mg/kg |
| CCCCOCCOCCOCc1cc2c(cc1CCC)OCO2 | 4570 mg/kg |
| CCCCCCCCCc1ccc(OCCOCCO)cc1 | 1310 mg/kg |
| C/C=C\CC1=C(C)[C@@H](OC(=O)[C@@H]2[C@@H](C=C(C)C)C2(C)C)CC1=O | 1030 mg/kg |
| COC(=O)c1ccccc1C(=O)OC | 2860 mg/kg |
| CO[C@H]1/C=C/O[C@@]2(C)Oc3c(C)c(O)c4c(O)c(c(/C=N/N5CCN(C)CC5)c(O)c4c3C2=O)NC(=O)/C(C)=C\C=C\[C@H](C)[C@H](O)[C@@H](C)[C@@H](O)[C@@H](C)[C@H](OC(C)=O)[C@@H]1C | 900 mg/kg |
| CC(=O)C=C(C)C | 300 mg/kg |
| CCC(C)(C)OC | 1600 mg/kg |
| CCN(CC)CCCN | 410 mg/kg |
| CN(C)C | 460 mg/kg |
| CC(C)(C)c1ccc(CCOc2ncnc3ccccc23)cc1 | 134 mg/kg |
| CC(C)CCCCCCO | 2980 mg/kg |
| CO[Si](OC)(c1ccccc1)c1ccccc1 | 2610 mg/kg |
| CCCCCC1CCC(=O)O1 (stereo not drawn) | 6600 mg/kg |
